Laboratory results taken from ChEMBL document CHEMBL1153748 (J Med Chem, 2010).

Key:
[1] = biological target: T1, Peroxisome proliferator-activated receptor delta (Homo sapiens, UniProt Q03181)
T1 sequence (Q03181 whole entry): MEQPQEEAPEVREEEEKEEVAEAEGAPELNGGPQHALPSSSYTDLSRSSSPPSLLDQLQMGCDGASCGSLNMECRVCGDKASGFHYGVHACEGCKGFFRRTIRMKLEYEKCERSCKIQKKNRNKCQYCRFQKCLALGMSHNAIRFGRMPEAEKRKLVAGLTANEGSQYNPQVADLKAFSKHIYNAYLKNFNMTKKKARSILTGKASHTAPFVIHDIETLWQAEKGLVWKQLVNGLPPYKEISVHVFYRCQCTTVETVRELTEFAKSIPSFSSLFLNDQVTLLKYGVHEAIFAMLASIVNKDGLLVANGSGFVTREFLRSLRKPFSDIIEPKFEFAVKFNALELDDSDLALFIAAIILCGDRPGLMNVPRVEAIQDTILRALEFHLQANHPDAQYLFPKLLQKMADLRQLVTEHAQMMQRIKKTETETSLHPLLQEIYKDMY

[2] = biological target: T1, Peroxisome proliferator-activated receptor delta; remark: listed apart in the source
Mus musculus [3] = experiment: Upregulation of PDK4 expression in C57BL/6 mouse at 10 mg/kg, po qd relative to control; type: functional
[4] = AUC ((0 to 24 hrs)) in Balb/c mouse at 10 mg/kg, po qd; conditions: plasma
[5] = Half life in Balb/c mouse at 10 mg/kg, po qd; conditions: in vivo
[6] = Cmax in Balb/c mouse at 10 mg/kg, po qd; conditions: in vivo
Mus musculus [7] = experiment: Upregulation of UCP3 expression in C57BL/6 mouse at 10 mg/kg, po qd relative to control; type: functional
[8] = Oral bioavailability in Balb/c mouse at 10 mg/kg daily; conditions: in vivo
[9] = biological target: Peroxisome proliferator-activated receptor delta (Homo sapiens) (UniProt Q03181); experiment: Agonist activity at human PPARdelta by FRET assay
[10] = biological target: T2, Peroxisome proliferator-activated receptor gamma (Homo sapiens, UniProt P37231); type: cell-based, 293T; conditions: read-out: EC50
T2 sequence (P37231 whole entry): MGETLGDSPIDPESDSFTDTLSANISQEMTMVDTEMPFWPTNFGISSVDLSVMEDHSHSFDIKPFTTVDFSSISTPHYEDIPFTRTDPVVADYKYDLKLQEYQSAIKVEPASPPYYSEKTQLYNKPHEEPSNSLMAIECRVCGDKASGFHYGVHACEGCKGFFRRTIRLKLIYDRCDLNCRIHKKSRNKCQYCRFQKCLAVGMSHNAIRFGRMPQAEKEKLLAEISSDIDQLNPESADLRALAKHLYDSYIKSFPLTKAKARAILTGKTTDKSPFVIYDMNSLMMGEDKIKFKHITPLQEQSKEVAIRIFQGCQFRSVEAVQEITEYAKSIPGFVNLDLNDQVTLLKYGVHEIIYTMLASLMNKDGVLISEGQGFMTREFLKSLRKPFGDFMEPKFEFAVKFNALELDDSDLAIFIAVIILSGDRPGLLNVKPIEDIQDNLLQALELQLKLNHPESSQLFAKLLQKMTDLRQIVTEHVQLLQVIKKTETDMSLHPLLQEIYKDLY

[11] = biological target: T3, Peroxisome proliferator-activated receptor alpha (Homo sapiens, UniProt Q07869); experiment: Agonist activity at human PPARalpha ligand binding domain expressed in human 293T cells co-transfected with Gal4-DBD by luciferase transactivation assay; type: cell-based; conditions: read-out: EC50
T3 sequence (Q07869 whole entry): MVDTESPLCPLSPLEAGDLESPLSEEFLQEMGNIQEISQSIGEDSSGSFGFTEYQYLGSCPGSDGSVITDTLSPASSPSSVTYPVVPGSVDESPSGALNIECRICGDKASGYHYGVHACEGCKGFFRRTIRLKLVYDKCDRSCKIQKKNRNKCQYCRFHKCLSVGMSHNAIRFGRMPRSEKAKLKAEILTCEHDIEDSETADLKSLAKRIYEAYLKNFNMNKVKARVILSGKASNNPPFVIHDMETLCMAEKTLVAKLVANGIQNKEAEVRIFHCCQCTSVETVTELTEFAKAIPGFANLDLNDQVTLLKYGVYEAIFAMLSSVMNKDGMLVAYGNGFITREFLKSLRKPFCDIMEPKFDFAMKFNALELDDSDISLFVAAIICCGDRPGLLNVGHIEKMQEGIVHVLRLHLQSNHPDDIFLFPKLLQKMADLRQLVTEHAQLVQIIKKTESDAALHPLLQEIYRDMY

[12] = biological target: T4, Peroxisome proliferator-activated receptor alpha (Homo sapiens) (UniProt Q07869); experiment: Agonist activity at human PPARalpha ligand binding domain expressed in human 293T cells co-transfected with Gal4-DBD by luciferase transactivation assay relative to KRP297; type: cell-based
T4 sequence (whole entry): T3 sequence (Q07869 whole entry)

| Structure (SMILES) | EC50 [1] [nM] | EC50 [2] [nM] | fold change (FC) (Mus musculus [3]) | AUC at 24 h [4] [µM·h] | half-life [5] [h] | Cmax [6] [µM] | fold change (FC) (Mus musculus [7]) | bioavailability [8] [%] | EC50 [9] [nM] | EC50 [10] [nM] | EC50 [11] [nM] | Efficacy [12] [%] |
| --- | --- | --- | --- | --- | --- | --- | --- | --- | --- | --- | --- | --- |
| CCCc1ccc(-c2oc(COc3ccc(OCC(=O)O)c(C)c3)nc2-c2cnc(OC)nc2)cc1 | 9 | 10 | 2 | 6.42 | 2.7 | 2.2 | 2.5 | 41 | 30 |  |  |  |
| Cc1cc(OCc2nc(-c3ccc(N4CCOCC4)nc3)c(-c3ccc(OC(F)(F)F)cc3)o2)ccc1OCC(=O)O | 2 |  |  | 1.95 | 3.8 | 0.7 |  | 18 | 5 | 2490 | 1200 | 46 |
| Cc1cc(OCc2nc(-c3ccc(OC(C)C)nc3)c(-c3ccc(OC(F)(F)F)cc3)o2)ccc1OCC(=O)O | 2490 | 14 | 1.5 | 95.8 | 5.3 | 9.1 | 2.5 | 144 | 7 | 70000 | 790 | 20 |
| Cc1cc(OCc2nc(-c3ccc(N4CCOCC4)cc3)c(-c3ccc(-c4ccccc4)cc3)s2)ccc1OCC(=O)O | 18 | 14 | 1.4 | 31.9 | 5.1 | 2.7 | 2.5 | 30 | 72 |  |  |  |
| Cc1cc(OCc2nc(-c3ccc(OC(C)C)cc3)c(-c3ccc(C(F)(F)F)cc3)s2)ccc1OCC(=O)O | 11 | 16 | 1.1 | 37.3 | 3.9 | 2.8 | 1.7 | 70 | 20 |  |  |  |
| Cc1cc(OCc2nc(-c3ccc(OC(C)C)cc3)c(-c3cccc(OC(F)(F)F)c3)s2)ccc1OCC(=O)O | 9 | 16 | 1.7 | 20.3 | 3.2 | 2.4 | 1.9 | 49 | 46 |  |  |  |
| COc1ccc(-c2nc(COc3ccc(OCC(=O)O)c(C)c3)sc2-c2ccc(OC(F)(F)F)cc2)cn1 | 17 | 12 | 1.9 | 196 | 4.6 | 17.3 | 2.5 | 140 | 90 | > 10000 | > 10000 |  |
| Cc1cc(OCc2nc(-c3ccc(OC4CCCC4)cc3)c(-c3ccc(OC(F)(F)F)cc3)s2)ccc1OCC(=O)O | 10 | 15 | 1.9 | 16.1 | 7.6 | 1.2 | 2.8 | 19 | 31 | > 10000 | > 10000 |  |
| Cc1cc(OCc2nc(-c3cccnc3)c(-c3ccc(-c4ccccc4)cc3)o2)ccc1OCC(=O)O | 8 | 6 |  | 0.814 | 4 | 0.4 |  | 10 | 30 |  |  |  |
| Cc1cc(OCc2nc(-c3ccc(OC(C)C)cc3)c(-c3ccc(OC(F)(F)F)cc3)s2)ccc1OCC(=O)O | 7 | 10 | 1.9 | 54.1 | 9 | 3.7 | 2.4 | 88 | 26 | > 10000 | > 10000 |  |
| Cc1cc(SCc2sc(-c3ccc(C(F)(F)F)cc3)nc2C)ccc1OCC(=O)O [GW501516] |  |  | 2.5 | 29.8 | 4.4 | 3.9 | 3.2 |  |  |  |  |  |
| Cc1cc(OCc2nc(-c3ccc(OC4CCCC4)cc3)c(-c3ccc(OC(F)(F)F)cc3)o2)ccc1OCC(=O)O | 4 | 12 | 2.1 | 23.3 | 3.1 | 2.4 | 2.5 | 35 | 9 | > 10000 | 910 | 56 |
| COc1ccc(-c2nc(COc3ccc(OCC(=O)O)c(C)c3)oc2-c2ccc(OC(F)(F)F)cc2)cn1 | 8 | 10 | 1.2 | 96.8 | 2.5 | 13.7 | 1.4 | 89 | 97 | > 10000 | > 10000 |  |
| Cc1cc(OCc2nc(-c3ccc(OC(C)C)cc3)c(-c3ccc(OC(F)(F)F)cc3)o2)ccc1OCC(=O)O | 3 | 13 | 2.3 | 104 | 5.1 | 7.8 | 2.2 | 129 | 9 | > 10000 | 2600 | 43 |
| Cc1cc(OCc2nc(-c3ccc(OC(C)C)nc3)c(-c3ccc(OC(F)(F)F)cc3)s2)ccc1OCC(=O)O | 8 | 12 | 1.9 | 62.9 | 10.8 | 4.7 | 2.9 | 72 | 13 | > 10000 | > 10000 |  |
| Cc1cc(OCc2nc(-c3cnc(OC(C)C)nc3)c(-c3ccc(OC(F)(F)F)cc3)s2)ccc1OCC(=O)O | 6 | 14 | 1.6 | 20.1 | 2.3 | 3.5 | 1.5 | 88 | 10 | > 10000 | > 10000 |  |
